Measurements published in PubChem BioAssay (NCI).
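Test compounds were applied to cells in 96-well plates for 48 hours at 5 doses. The concentration for 50% growth inhibition is given as GI50. TGI denotes the concentration required for complete inhibition of growth.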

Legend:
Experiment in all cases: DTP human tumour cell line panel, 48 h
[1] = tested on: HOP-92 NSCLC
[2] = tested on: SK-MEL-2 melanoma
[3] = tested on: SNB-19 CNS
[4] = tested on: HT29 colon
[5] = tested on: M14 melanoma
[6] = tested on: COLO 205 colon
[7] = tested on: SN12C renal
[8] = tested on: SW-620 colon
[9] = tested on: MOLT-4 leukemia
[10] = tested on: A498 renal
[11] = tested on: OVCAR-3 ovarian
[12] = tested on: HCT-15 colon
[13] = tested on: K-562 leukemia
[14] = tested on: HS 578T breast
[15] = tested on: MALME-3M melanoma
[16] = tested on: ACHN renal
[17] = tested on: SK-MEL-28 melanoma
[18] = tested on: BT-549 breast
[19] = tested on: SF-295 CNS
[20] = tested on: 786-0 renal
[21] = tested on: UACC-257 melanoma
[22] = tested on: CCRF-CEM leukemia
[23] = tested on: MDA-MB-435
[24] = tested on: HCT-116 colon
[25] = tested on: NCI/ADR-RES ovarian
[26] = tested on: OVCAR-4 ovarian
[27] = tested on: UO-31 renal
[28] = tested on: MCF7 breast
[29] = tested on: TK-10 renal
[30] = tested on: HCC-2998 colon
[31] = tested on: SR leukemia
[32] = tested on: NCI-H460 lung
[33] = tested on: SK-OV-3 ovarian
[34] = tested on: CAKI-1 renal
[35] = tested on: SF-539 CNS
[36] = tested on: UACC-62 melanoma
[37] = tested on: RPMI-8226 leukemia
[38] = tested on: SNB-75 CNS
[39] = tested on: IGROV1 ovarian
[40] = tested on: HOP-62 NSCLC
[41] = tested on: HL-60(TB) leukemia
[42] = tested on: DU-145 prostate
[43] = tested on: PC-3 prostate
[44] = tested on: OVCAR-8 ovarian
[45] = tested on: NCI-H522 lung
[46] = tested on: A549 NSCLC
[47] = tested on: OVCAR-5 ovarian
[48] = tested on: U251 CNS
[49] = tested on: T-47D breast
[50] = tested on: EKVX NSCLC
[51] = tested on: KM12 colon
[52] = tested on: LOX IMVI melanoma
[53] = tested on: SK-MEL-5 melanoma
[54] = tested on: NCI-H226 lung
[55] = tested on: MDA-MB-231 breast
[56] = tested on: NCI-H23 lung
[57] = tested on: SF-268 CNS
[58] = tested on: RXF 393 renal

C/C(=C(\c1ccc(O)cc1)c1ccc(OCCN2CCCCCC2)cc1)c1ccc(Cl)cc1
GI50 [1]: 2.07 µM | TGI [1]: 9.62 µM | GI50 [2]: 7.59 µM | TGI [2]: 14.5 µM | GI50 [3]: 6.27 µM | TGI [3]: 12.3 µM | GI50 [4]: 1.26 µM | TGI [4]: 4.59 µM | GI50 [5]: 1.6 µM | TGI [5]: 6.17 µM | GI50 [6]: 1.21 µM | TGI [6]: 2.99 µM | GI50 [7]: 5.86 µM | TGI [7]: 11.9 µM | GI50 [8]: 3.17 µM | TGI [8]: 9.28 µM | GI50 [9]: 1.69 µM | TGI [9]: 7.25 µM | GI50 [10]: 8.32 µM | TGI [10]: 14.9 µM | GI50 [11]: 6.11 µM | TGI [11]: 12.1 µM | GI50 [12]: 1.26 µM | TGI [12]: 3.95 µM | GI50 [13]: 1.32 µM | TGI [13]: 6.03 µM | GI50 [14]: 5.06 µM | TGI [14]: 14.1 µM | GI50 [15]: 4.52 µM | TGI [15]: 9.89 µM | GI50 [16]: 5.26 µM | TGI [16]: 10.8 µM | GI50 [17]: 4.94 µM | TGI [17]: 10.4 µM | GI50 [18]: 6.12 µM | TGI [18]: 13 µM | GI50 [19]: 4.79 µM | TGI [19]: 10.3 µM | GI50 [20]: 2.15 µM | TGI [20]: 8.4 µM | GI50 [21]: 7.39 µM | TGI [21]: 14.8 µM | GI50 [22]: 10.8 µM | TGI [22]: 45.8 µM | GI50 [23]: 5.36 µM | TGI [23]: 11.1 µM | GI50 [24]: 2.21 µM | TGI [24]: 9.11 µM | GI50 [25]: 5.57 µM | TGI [25]: 11.5 µM | GI50 [26]: 4.83 µM | TGI [26]: 10.6 µM | GI50 [27]: 4.53 µM | TGI [27]: 9.88 µM | GI50 [28]: 0.0385 µM | TGI [28]: 3.81 µM | GI50 [29]: 6.99 µM | TGI [29]: 14 µM | GI50 [30]: 2.43 µM | TGI [30]: 8.05 µM | GI50 [31]: 1.28 µM | TGI [31]: 4.7 µM | GI50 [32]: 2.2 µM | TGI [32]: 7.27 µM | GI50 [33]: 7.74 µM | TGI [33]: 15 µM | GI50 [34]: 5.39 µM | TGI [34]: 11 µM | GI50 [35]: 4.67 µM | TGI [35]: 10 µM | GI50 [36]: 6.35 µM | TGI [36]: 12.4 µM | GI50 [37]: 1.86 µM | TGI [37]: 31 µM | GI50 [38]: 6.02 µM | TGI [38]: 12 µM | GI50 [39]: 5.79 µM | TGI [39]: 11.9 µM | GI50 [40]: 7.03 µM | TGI [40]: 15.7 µM | GI50 [41]: 5.98 µM | TGI [41]: 14.3 µM | GI50 [42]: 7.05 µM | TGI [42]: 13.2 µM | GI50 [43]: 2.8 µM | TGI [43]: 11.1 µM | GI50 [44]: 6.94 µM | TGI [44]: 13.7 µM | GI50 [45]: 7.43 µM | TGI [45]: 15 µM | GI50 [46]: 6.27 µM | TGI [46]: 18.4 µM | GI50 [47]: 5.78 µM | TGI [47]: 11.5 µM | GI50 [48]: 3.28 µM | TGI [48]: 13.4 µM | GI50 [49]: 1.19 µM | TGI [49]: 11.1 µM | GI50 [50]: 6.67 µM | TGI [50]: 12.8 µM | GI50 [51]: 3.37 µM | TGI [51]: 9.28 µM | GI50 [52]: 1.66 µM | TGI [52]: 6.55 µM | GI50 [53]: 6.48 µM | TGI [53]: 12.5 µM | GI50 [54]: 5.39 µM | TGI [54]: 12.2 µM | GI50 [55]: 7.02 µM | TGI [55]: 13.3 µM | GI50 [56]: 5.52 µM | TGI [56]: 11.3 µM | GI50 [57]: 5.8 µM | TGI [57]: 12.7 µM

C#C[C@]1(O)CC[C@H]2[C@@H]3CC=C4c5sc(Nc6cccc(F)c6)nc5CC[C@]4(C)[C@H]3CC[C@@]21C
GI50 [1]: 2.19 µM | TGI [1]: 7.62 µM | GI50 [2]: 1.1 µM | TGI [2]: 4.45 µM | GI50 [3]: 1.49 µM | TGI [3]: 3.88 µM | GI50 [4]: 1.52 µM | TGI [4]: 6.06 µM | GI50 [5]: 1.31 µM | TGI [5]: 5.87 µM | GI50 [6]: 1.83 µM | TGI [6]: 4.63 µM | GI50 [7]: 3.33 µM | TGI [7]: 13.1 µM | GI50 [8]: 1.72 µM | TGI [8]: 4.5 µM | GI50 [9]: 0.306 µM | TGI [9]: 0.947 µM | GI50 [10]: 0.368 µM | TGI [10]: 2.03 µM | GI50 [12]: 1.45 µM | TGI [12]: 4.26 µM | GI50 [13]: 0.677 µM | TGI [13]: 3.54 µM | GI50 [14]: 0.364 µM | TGI [14]: 3.7 µM | GI50 [15]: 1.49 µM | TGI [15]: 4.71 µM | GI50 [16]: 1.35 µM | TGI [16]: 4.22 µM | GI50 [17]: 0.5 µM | TGI [17]: 2.06 µM | GI50 [18]: 0.456 µM | TGI [18]: 3.55 µM | GI50 [19]: 0.208 µM | TGI [19]: 0.499 µM | GI50 [20]: 0.371 µM | TGI [20]: 2.11 µM | GI50 [21]: 2.31 µM | TGI [21]: 17 µM | GI50 [22]: 0.534 µM | TGI [22]: 4.16 µM | GI50 [23]: 1.65 µM | TGI [23]: 7.5 µM | GI50 [24]: 0.982 µM | TGI [24]: 2.35 µM | GI50 [25]: 2.32 µM | TGI [25]: 7.61 µM | GI50 [26]: 2.59 µM | TGI [26]: 16.3 µM | GI50 [27]: 0.937 µM | TGI [27]: 2.79 µM | GI50 [28]: 0.963 µM | TGI [28]: 3.69 µM | GI50 [29]: 3.76 µM | TGI [29]: 15.7 µM | GI50 [30]: 2.41 µM | TGI [30]: 6.46 µM | GI50 [31]: 0.34 µM | TGI [31]: 2.96 µM | GI50 [32]: 1.16 µM | TGI [32]: 3.02 µM | GI50 [33]: 1.86 µM | TGI [33]: 10.1 µM | GI50 [34]: 1.03 µM | TGI [34]: 10.8 µM | GI50 [35]: 0.221 µM | TGI [35]: 1.06 µM | GI50 [36]: 1.25 µM | TGI [36]: 3.87 µM | GI50 [37]: 0.204 µM | TGI [37]: 0.615 µM | GI50 [38]: 0.31 µM | TGI [38]: 6.08 µM | GI50 [39]: 1.95 µM | TGI [39]: 7.2 µM | GI50 [40]: 2.15 µM | TGI [40]: 13.6 µM | GI50 [41]: 0.618 µM | TGI [41]: 2.89 µM | GI50 [42]: 1.49 µM | TGI [42]: 3.97 µM | GI50 [43]: 0.659 µM | TGI [43]: 12.3 µM | GI50 [44]: 3.04 µM | TGI [44]: 87.2 µM | GI50 [46]: 2.73 µM | TGI [46]: 20.3 µM | GI50 [47]: 1.76 µM | TGI [47]: 4.47 µM | GI50 [48]: 0.821 µM | TGI [48]: 3.88 µM | GI50 [49]: 2.14 µM | TGI [49]: 13.8 µM | GI50 [50]: 1.65 µM | TGI [50]: 15.2 µM | GI50 [51]: 1.89 µM | TGI [51]: 5.69 µM | GI50 [53]: 1.6 µM | TGI [53]: 3.22 µM | GI50 [55]: 1.94 µM | TGI [55]: 5.49 µM | GI50 [56]: 1.95 µM | TGI [56]: 8.42 µM | GI50 [57]: 1.62 µM | TGI [57]: 7.5 µM | GI50 [58]: 0.0653 µM | TGI [58]: 0.328 µM
